# Numbers after ± are expanded uncertainties.
# Details: 298.15 K; 101.33 kPa; Liquid; Vibrating tube method
row,mass density,Structure (SMILES)
1,873.38 ± 0.3 kg/m3,CCCCCCCl [1-chlorohexane]
2,873.45 ± 0.11 kg/m3,c1ccccc1 [benzene]

row,Structure (SMILES),mass density
1,"Clc1cccc(Cl)c1 [1,3-dichlorobenzene]",1282.87 ± 0.61 kg/m3

# Source: the NIST ThermoML archive (doi:10.1016/j.jct.2013.12.024)
